Broadly, the GI50 is the concentration at which growth is held to half of that of the control.

The subject of one data set is Panc-1 cell homogenates. As to the kind of experiment: Enzymatic stability in Panc-1 cell homogenates. The data set is classed as in vitro ADME. To be noted: 500 µg/mL protein, 37 °C. As for the experimental part: Confluent Caco-2, Panc-1, and AsPC-1cells were rinsed twice with phosphate buffered saline (PBS). The cells were lysed with phosphate buffer (pH 7.4) by ultrasonication (Micro ultrasonic cell disrupter Model KT40, Kontes, Vineland, NJ, USA), and pelleted by centrifugation for 5 min at 1,000 × g. Protein amount was quantified with the Bio-Rad (Hercules, CA, USA) DC Protein Assay using bovine serum albumin as a standard. The amount of protein was adjusted to 500 µg/mL and hydrolysis reactions were carried out in 96-well plates (Corning). Caco-2, Panc-1, and AsPC-1 cell suspensions (250 µL) were placed in triplicate wells, the reactions were started with the addition of substrate, and cells were incubated at 37 °C for 120 min. At the desired time point, sample aliquots (35 µL) were removed and added to acetonitrile (ACN, 150 µL) with 0.1% TFA. The mixtures were filtered with a 0.45 µm filters at 1,000 × g for 10 min at 4 °C. The filtrate was then analyzed via reverse-phase HPLC.
The stability samples of prodrugs and their metabolites, and perfusion samples were determined on an Agilent HPLC system (Agilent Technologies, Santa Clara, CA, USA). The HPLC system consisted of Agilent pumps (1100 series), an Agilent autosampler (1200 series), and an Agilent UV-Vis detector (1100 series) controlled by Chemstation® 32 software (version B.01.03). Samples were resolved in an Agilent Eclipse Plus C18 reverse-phase column (3.5 µm, 4.6 × 75 mm) equipped with a guard column. The mobile phase consisted of 0.1% TFA/water (Solvent A) and 0.1% TFA/acetonitrile (Solvent B) with the solvent B gradient changing from 0%–56% at a rate of […] during a 15 min run for gemcitabine and gemcitabine prodrugs. Standard curves generated for each prodrug and their parent drug were utilized for quantitation of integrated area under peaks. The detection wavelength was 254 nm and spectra were acquired in the 220–380 nm wavelength range. The detection wavelength for phenol red was 430 nm.
(§1) The experiments concerning drug and their prodrug stability were performed at 37 °C in 0.01 N HCl, SIF (pH 6.0), and pH 7.4 phosphate buffer. […] Prodrug metabolites such as floxuridine, 5-fluorouracil (5-FU), gemcitabine, 2′-deoxy-2′,2′-difluorouridine, uracil, and cytosine were monitored along with prodrug disappearance in this experiment.

A further data set concerns AsPC-1 cell homogenates. As to the kind of experiment: Enzymatic stability in AsPC-1 cell homogenates. To be noted: 500 µg/mL protein, 37 °C. It is filed as in vitro ADME. The procedure: (§2) Confluent Caco-2, Panc-1, and AsPC-1cells were rinsed twice with phosphate buffered saline (PBS). The cells were lysed with phosphate buffer (pH 7.4) by ultrasonication (Micro ultrasonic cell disrupter Model KT40, Kontes, Vineland, NJ, USA), and pelleted by centrifugation for 5 min at 1,000 × g. Protein amount was quantified with the Bio-Rad (Hercules, CA, USA) DC Protein Assay using bovine serum albumin as a standard. The amount of protein was adjusted to 500 µg/mL and hydrolysis reactions were carried out in 96-well plates (Corning). […] The filtrate was then analyzed via reverse-phase HPLC.
(§3) The stability samples of prodrugs and their metabolites, and perfusion samples were determined on an Agilent HPLC system (Agilent Technologies, Santa Clara, CA, USA). […] Standard curves generated for each prodrug and their parent drug were utilized for quantitation of integrated area under peaks. […]
as §1

Data set [1] is described as follows: Enzymatic stability in AsPC-1 cell homogenates. It is filed as in vitro ADME. To be noted: human, AsPC-1 cell homogenates, pH 7.4; 500 µg/mL protein, 37 °C; read-out: AsPC-1 cell homogenates t1/2. As for the experimental part: as §2, §3, §1
A further data set deals with AsPC-1 cells. Also on record: method as in PMID 18652477. To be noted: cited from earlier work.

“2′,2′-difluoro-2′-deoxyuridine [Gemcitabine]”: the “Panc-1 cell homogenates t1/2” value in the data set with Panc-1 cell homogenates is on record as >120 min. Besides, in the data set on AsPC-1 cell homogenates, the “AsPC-1 cell homogenates t1/2” value worked out at 33.7 ± 14.5 min. Take `Nc1ccn(C2OC(COC(=O)C(Cc3ccc(O)cc3)NC(=O)C(N)Cc3ccccc3)C(O)C2(F)F)c(=O)n1` [5′-L-Phenylalanyl-L-tyrosyl-gemcitabine]: the half-life in data set [1] amounted to 8.1 ± 0.6 min. For the compound `O=c1[nH]c(=O)n([C@H]2C[C@H](O)[C@@H](CO)O2)cc1F` [Floxuridine, 5-fluoro-2′-deoxyuridine], in the data set with AsPC-1 cells, the GI50 was 22.9 ± 5.7 mM.
